Test results taken from patent publication US10590143B2, “Herbicidally active (alkynyl-phenyl)-substituted cyclic dione compounds and derivatives thereof” (Syngenta Limited, priority 2013, dated 2020).
Like-named read-outs stand apart in the source and are kept apart here.

Legend:
Test in all cases: Biological Example 1 glasshouse assay for herbicidal activity
Type in all cases: in vivo
[1] = tested on: Echinochloa crus-galli (ECHCG); conditions: 13 days after application; for pest or weed control at 250 g/ha / percentage phytotoxicity ECHCG: 250 g/ha
Procedure, shortened: (§1)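 Weeds were sprayed pre-emergence (1 day after sowing) or post-emergence (8 days) with herbicide in acetone/water 50:50 plus 0.5% Tween 20. Plants grew in glasshouse at 24/16 °C, 14 h light, 65% humidity. Phytotoxicity was scored visually at 13 days (0–100%), usually one plant per species per rate.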

[2] = tested on: Abutilon theophrasti (ABUTH); conditions: 312 h, 13 days after application, read-out: percentage phytotoxicity ABUTH
Procedure, shortened: as §1

Setaria faberi (SETFA) = conditions: 312 h, 13 days after application, read-out: percentage phytotoxicity SETFA
Procedure, shortened: as §1

[3] = tested on: Alopecurus myosuroides (ALOMY); conditions: 312 h, 13 days after application, read-out: percentage phytotoxicity ALOMY
Procedure, shortened: as §1

[4] = tested on: Zea mays (ZEAMX, corn, maize, e.g. volunteer corn); conditions: 13 days after application; for pest or weed control at 8 g/ha / pest or weed control at 30 g/ha / pest or weed control at 250 g/ha: Zea mays, 312 h, read-out: percentage phytotoxicity ZEAMX; for pest or weed control at 250 g/ha / percentage phytotoxicity ZEAMX: 250 g/ha
Procedure, shortened: as §1

[5] = tested on: Amaranthus retroflexus (AMARE); conditions: 13 days after application; for pest or weed control at 8 g/ha / pest or weed control at 250 g/ha / pest or weed control at 30 g/ha: Amaranthus retroflexus, 312 h, read-out: percentage phytotoxicity AMARE
Procedure, shortened: as §1

[6] = Echinochloa crus-galli, post-emergence, 312 h, post-emergence, read-out: percentage phytotoxicity ECHCG
[7] = Echinochloa crus-galli, pre-emergence, 312 h, pre-emergence, read-out: percentage phytotoxicity ECHCG
[8] = post-emergence, post-emergence, 250 g/ha
[9] = pre-emergence, pre-emergence, 250 g/ha

| SMILES | pest or weed control at 30 g/ha [1, 6] | pest or weed control at 250 g/ha [1, 6] | pest or weed control at 250 g/ha [1, 7] | pest or weed control at 30 g/ha ([2]; pre-emergence, pre-emergence) | pest or weed control at 250 g/ha (Setaria faberi (SETFA); post-emergence, post-emergence) | pest or weed control at 250 g/ha (Setaria faberi (SETFA); pre-emergence, pre-emergence) | pest or weed control at 30 g/ha ([3]; post-emergence) | pest or weed control at 250 g/ha ([3]; post-emergence) | pest or weed control at 30 g/ha ([3]; pre-emergence) | pest or weed control at 250 g/ha ([3]; pre-emergence) | pest or weed control at 30 g/ha ([4]; post-emergence, post-emergence) | pest or weed control at 250 g/ha ([4]; post-emergence, post-emergence) | pest or weed control at 30 g/ha ([4]; pre-emergence, pre-emergence) | pest or weed control at 250 g/ha ([4]; pre-emergence, pre-emergence) | pest or weed control at 250 g/ha [5, 8] | pest or weed control at 30 g/ha ([5]; pre-emergence, pre-emergence) | pest or weed control at 250 g/ha [5, 9] | pest or weed control at 30 g/ha [1, 7] | pest or weed control at 30 g/ha ([2]; post-emergence, post-emergence) | pest or weed control at 250 g/ha ([2]; post-emergence, post-emergence) | further results |
| --- | --- | --- | --- | --- | --- | --- | --- | --- | --- | --- | --- | --- | --- | --- | --- | --- | --- | --- | --- | --- | --- |
| CC#Cc1cc(F)c(C2C(=O)C3CCC(C3)C2=O)c(OC)c1 (stereo not shown) [Compound A1, 3-(2-Fluoro-6-methoxy-4-prop-1-ynyl-phenyl)-bicyclo[3.2.1]octane-2,4-dione] | 100% | 100% | 100% | 0% | 100% | 100% | 100% | 100% | 100% | 100% | 100% | 100% | 100% | 100% | 30% | 0% | 20% |  |  |  | percentage phytotoxicity ECHCG ([1]; post-emergence): 100%; percentage phytotoxicity ECHCG ([1]; pre-emergence): 100%; pest or weed control at 8 g/ha ([2]; post-emergence, post-emergence): 0%; pest or weed control at 8 g/ha ([2]; pre-emergence, pre-emergence): 0%; pest or weed control at 8 g/ha (Setaria faberi (SETFA); pre-emergence, pre-emergence): 50%; pest or weed control at 8 g/ha ([3]; post-emergence): 80%; pest or weed control at 8 g/ha ([3]; pre-emergence): 70%; pest or weed control at 8 g/ha ([4]; post-emergence, post-emergence): 100%; pest or weed control at 8 g/ha ([4]; pre-emergence, pre-emergence): 60%; percentage phytotoxicity ZEAMX ([4]; post-emergence): 100%; percentage phytotoxicity ZEAMX ([4]; pre-emergence): 100%; pest or weed control at 8 g/ha ([5]; post-emergence, post-emergence): 0%; pest or weed control at 8 g/ha ([5]; pre-emergence, pre-emergence): 0%; percentage phytotoxicity AMARE ([5]; post-emergence, 250 g/ha): 30% |
| CC#Cc1cc(F)c(C2C(=O)C3CCC(C)(C2=O)C3(C)C)c(OC)c1 (stereo not shown) [Compound A2] | 100% | 100% | 100% | 60% | 90% | 100% | 80% | 90% | 70% | 90% | 100% | 100% | 60% | 100% | 0% | 10% | 40% | 90% | 0% | 0% | pest or weed control at 250 g/ha ([2]; pre-emergence, pre-emergence): 60%; pest or weed control at 30 g/ha (Setaria faberi (SETFA); post-emergence, post-emergence): 90%; pest or weed control at 30 g/ha (Setaria faberi (SETFA); pre-emergence, pre-emergence): 70%; pest or weed control at 30 g/ha ([5]; post-emergence, post-emergence): 0% |
| CC#Cc1cc(F)c(C2C(=O)C3CCC(C3)C2=O)c(OC(F)F)c1 (stereo not shown) [Compound A7] | 90% | 100% | 100% | 20% | 90% | 70% | 60% | 90% | 60% | 100% | 80% | 100% | 80% | 100% | 60% | 40% | 70% | 60% | 0% | 70% | pest or weed control at 250 g/ha ([2]; pre-emergence, pre-emergence): 30%; pest or weed control at 30 g/ha (Setaria faberi (SETFA); post-emergence, post-emergence): 70%; pest or weed control at 30 g/ha (Setaria faberi (SETFA); pre-emergence, pre-emergence): 50%; pest or weed control at 30 g/ha ([5]; post-emergence, post-emergence): 50% |
| CC#Cc1cc(F)c(C2=C(OC(=O)C(C)(C)C)C3CCC(C3)C2=O)c(OC)c1 (stereo not shown) [Compound P1] | 100% | 100% | 100% | 10% | 100% | 80% | 90% | 100% | 70% | 100% | 100% | 100% | 90% | 100% | 40% | 50% | 70% | 90% | 0% | 80% | pest or weed control at 8 g/ha ([1]; Echinochloa crus-galli, post-emergence, 312 h, post-emergence, 8 g/ha, read-out: percentage phytotoxicity ECHCG): 80%; pest or weed control at 8 g/ha ([2]; post-emergence, post-emergence): 0%; pest or weed control at 250 g/ha ([2]; pre-emergence, pre-emergence): 30%; pest or weed control at 8 g/ha (Setaria faberi (SETFA); post-emergence, post-emergence): 70%; pest or weed control at 30 g/ha (Setaria faberi (SETFA); post-emergence, post-emergence): 80%; pest or weed control at 30 g/ha (Setaria faberi (SETFA); pre-emergence, pre-emergence): 40%; pest or weed control at 8 g/ha ([3]; post-emergence): 60%; pest or weed control at 8 g/ha ([4]; post-emergence, post-emergence): 100%; pest or weed control at 8 g/ha ([5]; post-emergence, post-emergence): 0%; pest or weed control at 30 g/ha ([5]; post-emergence, post-emergence): 10% |
